# Assay results: patent US8466130B2, “Mitochondria targeted cationic anti-oxidant compounds for prevention, therapy or treatment of hyper-proliferative disease, neoplasias and cancers” (Colby Pharmaceutical Company, priority 2009, dated 2013)
# What was measured:
# LNCaP cells = assay: Hoechst dye-DNA fluorescence growth assay, LNCaP cells; assay type: cell-based, human; details: varying concentrations (FIG. 8)
# Experimental: (§1) For DNA assay, each culture plate was thawed and equilibrated to room temperature under protection from light. Hoechst dye was then added to each well in 200 μL of high salt TNE buffer (10 mM Tris, 1 mM EDTA, 2 M NaCl [pH 7.4]) at a final concentration of 6.7 μg/mL. After further incubation at room temperature for 2 hours under protection from light, culture plates were scanned on the CytoFluor 2350™ scanner using the 360/460 nm filter excitation and emission set. The DNA fluorescence intensity was used as a measure of cell growth.
# (§2) The effects of varying concentrations of Mito-T drug on the growth of LNCaP and PC-3 cells over a period of 4 days was assayed using the Hoechst dye-DNA fluorescence assay described above. In these and all subsequent cell culture studies described below, each data point and its associated error bar are respectively, an average value and the standard deviation of data obtained from six wells of a 96-well plate run in duplicate in three separate sets of experiments.
# PC-3 cells = assay: Hoechst dye-DNA fluorescence growth assay, PC-3 cells; assay type: cell-based, human; details: varying concentrations (FIG. 8)
# Experimental: as §1, §2
smiles,measurement,setting,value
"CC1(C)CC(OCCCCCCCCCC[P+](c2ccccc2)(c2ccccc2)c2ccccc2)CC(C)(C)N1[O] [MitoT-10, [4-(10-triphenylphosphonium)decyloxy-2,2,6,6-tetramethylpiperidinyloxy, freeradical]bromide]",growth and proliferation,LNCaP cells,inhibitory effect
same,growth and proliferation,PC-3 cells,inhibitory effect
